The record followed here is patent US12173018B2, “Penicillin-binding protein inhibitors” (priority 2018, dated 2024).

In brackets after ≈: the same amount, converted by molar mass. Where two headings read alike, the source gives them in different places.

Assay [1] deals with E. coli PBP3 (Escherichia coli (strain K12), UniProt P0AD68). Nature of the assay: E. coli PBP3 Bocillin-FL fluorescence polarization competition binding assay. An outline of the steps:
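Competition against 0.1 μM Bocillin-FL for binding to 1.5 μM purified protein, read by fluorescence polarization for 60 min. Compounds tested from 0 to 1000 μM; EC50 taken as the concentration reducing probe binding.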
On the technique in general: Polarisation of emitted light reports the rotation of a fluorescent probe.

For assay [2], the system named is E. coli 901C. Nature of the assay: microbe, parasite or virus in culture. Type of assay: cell-based. To be noted: Escherichia coli, read-out: MIC E. coli 901C. The essentials: (§1)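 Strains are tested by standard CLSI broth microdilution. Log-phase cells, diluted by OD600 to 5×10^5 CFU/mL, meet 2-fold compound series and incubate 16-20 hours at 37° C before the lowest growth-free concentration is recorded.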

Assay [3] has as its system E. coli AG100A. Nature of the assay: microbe, parasite or virus in culture. To be noted: Escherichia coli, read-out: MIC E. coli AG100A. Format: cell-based. An outline of the steps:
as §1

Assay [4] concerns E. coli D22. Put plainly: microbe, parasite or virus in culture. Type of assay: cell-based. To be noted: Escherichia coli. An outline of the steps:
as §1

The subject of assay [5] is K. pneumoniae SI-117. Nature of the assay: microbe, parasite or virus in culture. Format: cell-based. To be noted: Klebsiella pneumoniae, SI117, read-out: MIC K. pneumoniae SI-117. An outline of the steps:
as §1

The test system of assay [6] is K. pneumoniae UMM. Put plainly: microbe, parasite or virus in culture. Type of assay: cell-based. To be noted: Klebsiella pneumoniae, read-out: MIC K. pneumoniae UMM. An outline of the steps:
as §1

Assay [7] has as its system N. gonorrhoeae FA19. Put plainly: Liquid broth MIC, N. gonorrhoeae FA19. To be noted: Neisseria gonorrhoeae; N. gonorrhoeae FA19, liquid broth; read-out: Minimum Inhibitory Concentration, N. gonorrhoeae FA19. Type of assay: cell-based. The essentials: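 Growth inhibition was scored by eye as the lowest compound concentration free of bacterial growth. Cultures from Kellogg's-supplemented GC agar, diluted to 5×10^5 CFU/mL, were exposed to serially diluted compound for 40-42 h at 36° C under 5% CO2.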

[8] abbreviates: hyper-permeable E. coli 901C, broth microdilution.
[9] abbreviates: hyper-permeable E. coli D22, broth microdilution, read-out: MIC E. coli D22.
The mark [10] stands for this setting: K. pneumoniae UMM producing SHV-5 and KPC-2.
[11] abbreviates: fluorescence polarization competition binding with Bocillin-FL, read-out: E. coli K12 PBP3 Potency.

Chain of E. coli PBP3 (P0AD68 whole entry): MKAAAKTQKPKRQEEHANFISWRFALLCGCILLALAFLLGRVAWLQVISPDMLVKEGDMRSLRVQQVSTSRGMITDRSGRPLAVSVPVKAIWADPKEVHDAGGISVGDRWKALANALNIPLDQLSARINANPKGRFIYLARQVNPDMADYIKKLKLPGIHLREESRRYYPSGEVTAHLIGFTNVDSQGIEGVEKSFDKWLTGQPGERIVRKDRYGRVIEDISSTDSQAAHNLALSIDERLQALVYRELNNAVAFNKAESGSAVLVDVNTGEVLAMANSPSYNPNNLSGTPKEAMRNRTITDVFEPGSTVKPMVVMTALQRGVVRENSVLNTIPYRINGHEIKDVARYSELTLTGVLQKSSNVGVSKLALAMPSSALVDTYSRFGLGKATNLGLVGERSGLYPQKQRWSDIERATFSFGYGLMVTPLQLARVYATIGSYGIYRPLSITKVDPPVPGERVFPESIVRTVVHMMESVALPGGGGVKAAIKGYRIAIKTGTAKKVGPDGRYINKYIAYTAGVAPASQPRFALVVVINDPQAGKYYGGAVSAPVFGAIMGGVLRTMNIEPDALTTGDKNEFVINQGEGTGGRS

In the case of `CCCN1CCN(C(=O)NC(C(=O)N[C@H]2Cc3ccc(F)c(C(=O)O)c3OB2O)c2ccc(O)c(O)c2Cl)C(=O)C1=O` (stereo partly shown) [Example 125], in assay [1], the EC50 lay within 30 to 500 µM. For the same molecule, the MIC fell in the range of 0.5 to 1 µg/mL in assay [2] (setting [8]); 2 to 4 µg/mL in assay [3]; 0.5 to 1 µg/mL in assay [4] (setting [9]); 2 to 4 µg/mL in assay [5]; 32 to 64 µg/mL in assay [6] (setting [10]); 16 to 32 µg/mL (≈ 26.4 to 52.7 µM) in assay [7].
On to `NCCCN1CCN(C(=O)N[C@@H](C(=O)N[C@H]2Cc3ccc(F)c(C(=O)O)c3OB2O)c2ccc(O)c(O)c2Cl)C(=O)C1=O` [Example 236, (R)-3-((R)-2-(4-(3-aminopropyl)-2,3-dioxopiperazine-1-carboxamido)-2-(2-chloro-3,4-dihydroxyphenyl)acetamido)-7-fluoro-2-hydroxy-3,4-dihydro-2H-benzo[e][1,2]oxaborinine-8-carboxylic acid], for which the EC50 in assay [1] is 30 to 500 µM. The MIC was 0.5 to 1 µg/mL in assay [2] (setting [8]); 0.5 to 1 µg/mL in assay [3]; 0.5 to 1 µg/mL in assay [4] (setting [9]); 0.5 to 1 µg/mL in assay [5]; 0.5 to 1 µg/mL in assay [6] (setting [10]); 4 to 8 µg/mL (≈ 6.43 to 12.9 µM) in assay [7].
In assay [1], `CCN1CCN(C(=O)NC(C(=O)N[C@H]2Cc3cccc(C(=O)O)c3OB2O)c2ccc(B(O)O)cc2)C(=O)C1=O` (stereo partly shown) [Example 112] showed an EC50 of 30 to 500 µM. The MIC is below 0.25 µg/mL in assay [2] (901C); 2 to 4 µg/mL in assay [3]; 2 to 4 µg/mL in assay [4] (D22, read-out: MIC E. coli D22); above 128 µg/mL in assay [5]; 32 to 64 µg/mL in assay [6]; 1 to 2 µg/mL (≈ 1.81 to 3.62 µM) in assay [7].
With `CCN1C[C@H](C)N(C(=O)NC(C(=O)N[C@H]2Cc3ccc(F)c(C(=O)O)c3OB2O)c2ncc(O)cc2F)C(=O)C1=O` (stereo partly drawn) [Example 208, (3R)-3-(2-((S)-4-ethyl-6-methyl-2,3-dioxopiperazine-1-carboxamido)-2-(3-fluoro-5-hydroxypyridin-2-yl)acetamido)-7-fluoro-2-hydroxy-3,4-dihydro-2H-benzo[e][1,2]oxaborinine-8-carboxylic acid], the EC50 in assay [1] (setting [11]) was below 30 µM. Besides, the MIC in assay [2] (setting [8]) was below 0.25 µg/mL; in assay [3], 2 to 4 µg/mL; in assay [4] (setting [9]), 2 to 4 µg/mL; in assay [5], 32 to 64 µg/mL; in assay [6] (setting [10]) it was 8 to 16 µg/mL; in assay [7], 4 to 8 µg/mL (≈ 6.95 to 13.9 µM).
Regarding `O=C(O)c1cccc2c1OB(O)[C@@H](NC(=O)C(NC(=O)N1CCN(CCF)C(=O)C1=O)c1ccc(S(=O)(=O)NCCO)cc1)C2` (stereo partly drawn) [Example 213, (3R)-3-(2-(4-(2-fluoroethyl)-2,3-dioxopiperazine-1-carboxamido)-2-(4-(N-(2-hydroxyethyl)sulfamoyl)phenyl)acetamido)-2-hydroxy-3,4-dihydro-2H-benzo[e][1,2]oxaborinine-8-carboxylic acid], the EC50 in assay [1] was in the range of 30 to 500 µM. The MIC in assay [2] (setting [8]) was 0.5 to 1 µg/mL; in assay [3], 8 to 16 µg/mL; in assay [4] (setting [9]) it was 2 to 4 µg/mL; in assay [5] it was above 128 µg/mL; in assay [6] (setting [10]), 32 to 64 µg/mL; in assay [7], 16 to 32 µg/mL (≈ 24.6 to 49.3 µM).
`CCN1CCN(C(=O)NC(C(=O)N[C@H]2Cc3ccc(F)c(C(=O)O)c3OB2O)c2ccc(O)c(O)c2Cl)C(O)C1=O` (stereo partly drawn) [Example 194, (3R)-3-(2-(2-chloro-3,4-dihydroxyphenyl)-2-(4-ethyl-2-hydroxy-3-oxopiperazine-1-carboxamido)acetamido)-7-fluoro-2-hydroxy-3,4-dihydro-2H-benzo[e][1,2]oxaborinine-8-carboxylic acid] yielded an EC50 in assay [1] of 30 to 500 µM. Also, the MIC lay in the range of 8 to 16 µg/mL in assay [2] (setting [8]); 8 to 16 µg/mL in assay [3]; 8 to 16 µg/mL in assay [4] (setting [9]); 8 to 16 µg/mL in assay [5]; 8 to 16 µg/mL in assay [6] (setting [10]); 4 to 8 µg/mL (≈ 6.73 to 13.5 µM) in assay [7].
Turning to `CCN1CCN(C(=O)NC(C(=O)N[C@H]2Cc3ccc(F)c(C(=O)O)c3OB2O)c2ccc(O)c(O)c2F)C(=O)C1=O` (stereo partly drawn) [Example 149, (3R)-3-(2-(4-ethyl-2,3-dioxopiperazine-1-carboxamido)-2-(2-fluoro-3,4-dihydroxyphenyl)acetamido)-7-fluoro-2-hydroxy-3,4-dihydro-2H-benzo[e][1,2]oxaborinine-8-carboxylic acid], the EC50 in assay [1] was 30 to 500 µM. For the same molecule, the MIC in assay [2] (setting [8]) was 0.5 to 1 µg/mL; in assay [3] it was 0.5 to 1 µg/mL; in assay [4] (setting [9]) it was 2 to 4 µg/mL; in assay [5] it was 2 to 4 µg/mL; in assay [6] (setting [10]), 2 to 4 µg/mL; in assay [7], 1 to 2 µg/mL (≈ 1.74 to 3.47 µM).
On to `CCN1CCN(C(=O)NC(C(=O)N[C@H]2Cc3cccc(C(=O)O)c3OB2O)c2ncc(O)cc2Cl)C(=O)C1=O` (stereo partly drawn) [Example 150, (3R)-3-(2-(4-ethyl-2,3-dioxopiperazine-1-carboxamido)-2-(3-chloro-5-hydroxypyridin-2-yl)acetamido)-2-hydroxy-3,4-dihydro-2H-benzo[e][1,2]oxaborinine-8-carboxylic acid], for which the EC50 in assay [1] (setting [11]) was below 30 µM. For the same molecule, the MIC is 0.5 to 1 µg/mL in assay [2] (setting [8]); 2 to 4 µg/mL in assay [3]; 2 to 4 µg/mL in assay [4] (setting [9]); above 128 µg/mL in assay [5]; 32 to 64 µg/mL in assay [6] (setting [10]); 4 to 8 µg/mL (≈ 7.15 to 14.3 µM) in assay [7].
In the case of `CCN1CCN(C(=O)NC(C(=O)N[C@H]2Cc3ccc(F)c(C(=O)O)c3OB2O)c2ncc(O)cc2F)C(=O)C1=O` (stereo partly drawn) [Example 145, (3R)-3-(2-(4-ethyl-2,3-dioxopiperazine-1-carboxamido)-2-(3-fluoro-5-hydroxypyridin-2-yl)acetamido)-7-fluoro-2-hydroxy-3,4-dihydro-2H-benzo[e][1,2]oxaborinine-8-carboxylic acid], the EC50 in assay [1] (setting [11]) was below 30 µM. The MIC in assay [2] (setting [8]) was 0.5 to 1 µg/mL; in assay [3], 2 to 4 µg/mL; in assay [4] (setting [9]), 2 to 4 µg/mL; in assay [5], 32 to 64 µg/mL; in assay [6] (setting [10]) it was 8 to 16 µg/mL; in assay [7], 1 to 2 µg/mL (≈ 1.78 to 3.56 µM).
Regarding `CCN1CCN(C(=O)NC(C(=O)N[C@H]2Cc3cccc(C(=O)O)c3OB2O)c2ccc(C(=O)O)cc2)C(=O)C1=O` (stereo partly drawn) [Example 212, (3R)-3-(2-(4-carboxyphenyl)-2-(4-ethyl-2,3-dioxopiperazine-1-carboxamido)acetamido)-2-hydroxy-3,4-dihydro-2H-benzo[e][1,2]oxaborinine-8-carboxylic acid], the EC50 in assay [1] (setting [11]) is below 30 µM. Besides, the MIC in assay [2] (setting [8]) is below 0.25 µg/mL; in assay [3], 8 to 16 µg/mL; in assay [4] (setting [9]), 2 to 4 µg/mL; in assay [5], above 128 µg/mL; in assay [6] (setting [10]), 32 to 64 µg/mL; in assay [7], 0.25 to 0.5 µg/mL (≈ 0.453 to 0.905 µM).
In the case of `CCN1CCN(C(=O)NC(C(=O)N[C@H]2Cc3ccc(F)c(C(=O)O)c3OB2O)c2ccc(O)c(O)c2Cl)C(=O)C1=O` (stereo partly drawn) [Example 124, (3R)-3-(2-(2-chloro-3,4-dihydroxyphenyl)-2-(4-ethyl-2,3-dioxopiperazine-1-carboxamido)acetamido)-7-fluoro-2-hydroxy-3,4-dihydro-2H-benzo[e][1,2]oxaborinine-8-carboxylic acid], the EC50 in assay [1] was 30 to 500 µM. In addition, the MIC is below 0.25 µg/mL in assay [2] (setting [8]); 0.5 to 1 µg/mL in assay [3]; 0.5 to 1 µg/mL in assay [4] (setting [9]); 8 to 16 µg/mL in assay [5]; 8 to 16 µg/mL in assay [6] (setting [10]); 4 to 8 µg/mL (≈ 6.75 to 13.5 µM) in assay [7].
`CCN1C[C@@H](C)N(C(=O)NC(C(=O)N[C@H]2Cc3cccc(C(=O)O)c3OB2O)c2ncc(O)cc2F)C(=O)C1=O` (stereo partly drawn) [Example 191, (3R)-3-(2-((R)-4-ethyl-6-methyl-2,3-dioxopiperazine-1-carboxamido)-2-(3-fluoro-5-hydroxypyridin-2-yl)acetamido)-2-hydroxy-3,4-dihydro-2H-benzo[e][1,2]oxaborinine-8-carboxylic acid] had an EC50 in assay [1] of 30 to 500 µM. Further, the MIC was 0.5 to 1 µg/mL in assay [2] (setting [8]); 8 to 16 µg/mL in assay [3]; 8 to 16 µg/mL in assay [4] (setting [9]); above 128 µg/mL in assay [5]; above 128 µg/mL in assay [6] (setting [10]); 16 to 32 µg/mL (≈ 28.7 to 57.4 µM) in assay [7].
`CC(=O)NCCN1CCN(C(=O)NC(C(=O)N[C@H]2Cc3cccc(C(=O)O)c3OB2O)c2ccc(O)c(O)c2Cl)C(=O)C1=O` (stereo partly drawn) [Example 228, (3R)-3-(2-(4-(2-acetamidoethyl)-2,3-dioxopiperazine-1-carboxamido)-2-(2-chloro-3,4-dihydroxyphenyl)acetamido)-2-hydroxy-3,4-dihydro-2H-benzo[e][1,2]oxaborinine-8-carboxylic acid] displayed an EC50 in assay [1] of 30 to 500 µM. Moreover, the MIC in assay [2] (setting [8]) is 0.5 to 1 µg/mL; in assay [3] it was 0.5 to 1 µg/mL; in assay [4] (setting [9]), 2 to 4 µg/mL; in assay [5], 2 to 4 µg/mL; in assay [6] (setting [10]), 0.5 to 1 µg/mL; in assay [7], above 64 µg/mL.
